Measured values published in US20090018111A1, “Novel Antimicrobial Medicament” (priority 2004, published 2009).
Where two headings read alike, the source gives them in different places.

What was measured:
E. faecium ATCC19434 = assay: Sensitivity test (agar dilution); type: cell-based, Enterococcus faecium; conditions: Enterococcus faecium, E. faecium ATCC19434
How it was run: (§1)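 Minimum inhibitory concentrations come from agar dilution in MHA, with single agents or combinations in twofold steps. Inocula: about 5 μl at about 10^6 CFU/ml. An FIC index of at most 1 marks a positive combination effect; above 1, negative.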

E. coli ML1410 RP4 = assay: microbe, parasite or virus in culture; type: cell-based, Escherichia coli; conditions: Escherichia coli, E. coli ML1410 RP4
How it was run: as §1

S. marcescens GN6473 = assay: Sensitivity test (agar dilution); type: cell-based, Serratia marcescens; conditions: Serratia marcescens, S. marcescens GN6473
How it was run: as §1

S. marcescens X 100 = assay: Sensitivity test (agar dilution); type: cell-based, Serratia marcescens; conditions: Serratia marcescens, S. marcescens X 100
How it was run: as §1

S. epidermidis IAM1296 = assay: Sensitivity test (agar dilution); type: cell-based, Staphylococcus epidermidis; conditions: Staphylococcus epidermidis, S. epidermidis IAM1296
How it was run: as §1

B. subtilis ATCC6633 = assay: Sensitivity test (agar dilution); type: cell-based, Bacillus subtilis; conditions: Bacillus subtilis, B. subtilis ATCC6633
How it was run: as §1

E. faecalis ATCC19433 = assay: Sensitivity test (agar dilution); type: cell-based, Enterococcus faecalis; conditions: Enterococcus faecalis, E. faecalis ATCC19433
How it was run: as §1

E. cloacae GN7471 = assay: Sensitivity test (agar dilution); type: cell-based, Enterobacter cloacae; conditions: Enterobacter cloacae, E. cloacae GN7471
How it was run: as §1

E. coli ML1410 = assay: Sensitivity test (agar dilution); type: cell-based, Escherichia coli; conditions: Escherichia coli, E. coli ML1410
How it was run: as §1

E. coli NIHJ JC-2 = assay: Sensitivity test (agar dilution); type: cell-based, Escherichia coli; conditions: Escherichia coli, E. coli NIHJ JC-2
How it was run: as §1

P. vurgalis OX-19 = assay: Sensitivity test (agar dilution); type: cell-based, Proteus vulgaris; conditions: Proteus vulgaris, P. vurgalis OX-19
How it was run: as §1

P. vulgaris GN7919 = assay: Sensitivity test (agar dilution); type: cell-based, Proteus vulgaris; conditions: Proteus vulgaris, P. vulgaris GN7919
How it was run: as §1

Str. pyogenes Cook = assay: Sensitivity test (agar dilution); type: cell-based, Streptococcus pyogenes; conditions: Streptococcus pyogenes, Str. pyogenes Cook
How it was run: as §1

[1] = ATCC19434, drug alone, read-out: MIC alone
[2] = ML1410RP4, read-out: MIC alone, drug alone
[3] = GN6473, drug alone, read-out: MIC alone
[4] = X100, drug alone, read-out: MIC alone
[5] = IAM1296, drug alone, read-out: MIC alone
[6] = ATCC6633, drug alone, read-out: MIC alone
[7] = ATCC19433, drug alone, read-out: MIC alone
[8] = GN7471, drug alone, read-out: MIC alone
[9] = ML1410, drug alone, read-out: MIC alone
[10] = NIHJJC2, drug alone, read-out: MIC alone
[11] = GN7919, drug alone, read-out: MIC alone
[12] = drug alone, read-out: MIC alone

CC(=N)N1CC[C@H](SC2=C(C(=O)O)N3C(=O)[C@H]([C@@H](C)O)[C@H]3C2)C1 [PAPM, panipenem]
MIC (E. faecium ATCC19434; ATCC19434, Concomitant (PAPM:SM = 1:1), read-out: MIC concomitant): 0.125 µg/mL | MIC (E. faecium ATCC19434; [1]): 8 µg/mL | MIC (E. coli ML1410 RP4; [2]): 0.5 µg/mL | MIC (E. coli ML1410 RP4; ML1410RP4, read-out: MIC concomitant, Concomitant (PAPM:SM = 1:1)): 0.125 µg/mL | MIC (S. marcescens GN6473; GN6473, Concomitant (PAPM:SM = 1:1), read-out: MIC concomitant): 0.25 µg/mL | MIC (S. marcescens GN6473; [3]): 0.5 µg/mL | MIC (S. marcescens X 100; X100, Concomitant (PAPM:SM = 1:1), read-out: MIC concomitant): 0.125 µg/mL | MIC (S. marcescens X 100; [4]): 0.25 µg/mL | MIC (S. epidermidis IAM1296; IAM1296, Concomitant (PAPM:SM = 1:1), read-out: MIC concomitant): 0.016 µg/mL | MIC (S. epidermidis IAM1296; [5]): 0.5 µg/mL | MIC (B. subtilis ATCC6633; ATCC6633, Concomitant (PAPM:SM = 1:1), read-out: MIC concomitant): ≤ 0.002 µg/mL | MIC (B. subtilis ATCC6633; [6]): 0.016 µg/mL | MIC (E. faecalis ATCC19433; ATCC19433, Concomitant (PAPM:SM = 1:1), read-out: MIC concomitant): 1 µg/mL | MIC (E. faecalis ATCC19433; [7]): 2 µg/mL | MIC (E. cloacae GN7471; GN7471, Concomitant (PAPM:SM = 1:1), read-out: MIC concomitant): 0.125 µg/mL | MIC (E. cloacae GN7471; [8]): 0.25 µg/mL | MIC (E. coli ML1410; ML1410, Concomitant (PAPM:SM = 1:1), read-out: MIC concomitant): 0.125 µg/mL | MIC (E. coli ML1410; [9]): 0.5 µg/mL | MIC (E. coli NIHJ JC-2; NIHJJC2, Concomitant (PAPM:SM = 1:1), read-out: MIC concomitant): 0.063 µg/mL | MIC (E. coli NIHJ JC-2; [10]): 0.25 µg/mL | MIC (P. vurgalis OX-19; OX19, Concomitant (PAPM:SM = 1:1), read-out: MIC concomitant): 0.063 µg/mL | MIC (P. vurgalis OX-19; OX19, drug alone, read-out: MIC alone): 1 µg/mL | MIC (P. vulgaris GN7919; GN7919, Concomitant (PAPM:SM = 1:1), read-out: MIC concomitant): 0.5 µg/mL | MIC (P. vulgaris GN7919; [11]): 1 µg/mL | MIC (Str. pyogenes Cook; Concomitant (PAPM:SM = 1:1), read-out: MIC concomitant): ≤ 0.002 µg/mL | MIC (Str. pyogenes Cook; [12]): 0.008 µg/mL

CCN1CCN(C(=O)N[C@@H](C(=O)N[C@@H]2C(=O)N3[C@@H]2SC(C)(C)[C@@H]3C(=O)O)c2ccccc2)C(=O)C1=O [PIPC, piperacillin]
MIC (E. faecium ATCC19434; ATCC19434, Concomitant (PIPC:SM = 1:1), read-out: MIC concomitant): 0.125 µg/mL | MIC (E. faecium ATCC19434; [1]): 8 µg/mL | MIC (E. coli ML1410 RP4; [2]): > 32 µg/mL | MIC (E. coli ML1410 RP4; ML1410RP4, read-out: MIC concomitant, Concomitant (PIPC:SM = 1:1)): 0.5 µg/mL | MIC (S. marcescens GN6473; GN6473, Concomitant (PIPC:SM = 1:1), read-out: MIC concomitant): 4 µg/mL | MIC (S. marcescens GN6473; [3]): > 32 µg/mL | MIC (S. marcescens X 100; X100, Concomitant (PIPC:SM = 1:1), read-out: MIC concomitant): 0.25 µg/mL | MIC (S. marcescens X 100; [4]): 0.5 µg/mL | MIC (S. epidermidis IAM1296; IAM1296, Concomitant (PIPC:SM = 1:1), read-out: MIC concomitant): 0.016 µg/mL | MIC (S. epidermidis IAM1296; [5]): 2 µg/mL | MIC (B. subtilis ATCC6633; ATCC6633, Concomitant (PIPC:SM = 1:1), read-out: MIC concomitant): ≤ 0.002 µg/mL | MIC (B. subtilis ATCC6633; [6]): 0.125 µg/mL | MIC (E. faecalis ATCC19433; ATCC19433, Concomitant (PIPC:SM = 1:1), read-out: MIC concomitant): 0.5 µg/mL | MIC (E. faecalis ATCC19433; [7]): 2 µg/mL | MIC (E. cloacae GN7471; GN7471, Concomitant (PIPC:SM = 1:1), read-out: MIC concomitant): 8 µg/mL | MIC (E. cloacae GN7471; [8]): 16 µg/mL | MIC (E. coli ML1410; ML1410, Concomitant (PIPC:SM = 1:1), read-out: MIC concomitant): 0.125 µg/mL | MIC (E. coli ML1410; [9]): 2 µg/mL | MIC (E. coli NIHJ JC-2; NIHJJC2, Concomitant (PIPC:SM = 1:1), read-out: MIC concomitant): 0.063 µg/mL | MIC (E. coli NIHJ JC-2; [10]): 0.25 µg/mL | MIC (P. vurgalis OX-19; OX19, read-out: MIC alone, drug alone): 0.008 µg/mL | MIC (P. vurgalis OX-19; OX19, read-out: MIC concomitant, Concomitant (PIPC:SM = 1:1)): 0.008 µg/mL | MIC (P. vulgaris GN7919; GN7919, Concomitant (PIPC:SM = 1:1), read-out: MIC concomitant): 0.5 µg/mL | MIC (P. vulgaris GN7919; [11]): > 32 µg/mL | MIC (Str. pyogenes Cook; Concomitant (PIPC:SM = 1:1), read-out: MIC concomitant): ≤ 0.002 µg/mL | MIC (Str. pyogenes Cook; [12]): 0.031 µg/mL
